Values quoted from earlier work as cited in patent US20040170686A1, “Suspension vehicle for coated drug particles” (priority 2003, published 2004).

System: gram-positive organisms
Conditions: gram-positive organisms incl. Staphylococcus, Streptococcus, Enterococcus, Bacillus, Corynebacterium

CC(=O)NC[C@H]1CN(c2ccc(N3CCOCC3)c(F)c2)C(=O)O1 [Linezolid, linezolid]
antibacterial activity: strong antibacterial activity
